Assay results from ChEMBL document CHEMBL3272295, “Drugs derived from cannabinoids. 5. delta6a,10a-Tetrahydrocannabinol and heterocyclic analogs containing aromatic side chains” (J Med Chem, 1976).

Assays:
Rattus norvegicus [1] = assay: Antipsychotic activity in rat assessed as reduction of methamphetamine-induced hyperactivity at 1 mg/kg, po administered prior to methamphetamine challenge relative to vehicle-treated control; assay type: functional; parameters: scale not given: the % may be the effect or the level left
Rattus norvegicus [2] = assay: Antipsychotic activity in rat assessed as reduction of methamphetamine-induced hyperactivity at 5 mg/kg, po administered prior to methamphetamine challenge relative to vehicle-treated control; assay type: functional; parameters: scale not given: the % may be the effect or the level left
Rattus norvegicus [3] = assay: Antianxiety activity in Long-Evans rat assessed as reduction in motor activity at 5 mg/kg, po after 2 hrs relative to vehicle-treated control; assay type: functional; parameters: scale not given: the % may be the effect or the level left
[4] = Acute toxicity in po dosed mouse; assay type: organism-based; details: in vivo
Mus musculus [5] = assay: Analgesic activity in mouse assessed as inhibition of acetic acid-induced writhing at 20 mg/kg, po administered 30 mins prior to acetic acid challenge measured after 5 mins for 20 mins; assay type: functional
Rattus norvegicus [6] = assay: Analgesic activity in po dosed Sprague-Dawley rat after 15 to 90 mins by tail flick test; assay type: functional
Rattus norvegicus [7] = assay: Antianxiety activity in Long-Evans rat assessed as reduction in motor activity at 40 mg/kg, po after 2 hrs relative to vehicle-treated control; assay type: functional; parameters: scale not given: the % may be the effect or the level left
Rattus norvegicus [8] = assay: Antipsychotic activity in rat assessed as reduction of methamphetamine-induced hyperactivity at 20 mg/kg, po administered prior to methamphetamine challenge relative to vehicle-treated control; assay type: functional; parameters: scale not given: the % may be the effect or the level left
Rattus norvegicus [9] = assay: Antianxiety activity in Long-Evans rat assessed as reduction in motor activity at 10 mg/kg, po after 2 hrs relative to vehicle-treated control; assay type: functional; parameters: scale not given: the % may be the effect or the level left
Mus musculus [10] = assay: Analgesic activity in po dosed mouse assessed as inhibition of acetic acid-induced writhing administered 30 mins prior to acetic acid challenge measured after 5 mins for 20 mins; assay type: functional
Mus musculus [11] = assay: Antianxiety activity in albino BALB/cJ mouse assessed as reduction in footshock-induced fighting behavior at 5 mg/kg, po after 30 to 90 mins; assay type: functional; parameters: scale not given: the % may be the effect or the level left
Rattus norvegicus [12] = assay: Antipsychotic activity in rat assessed as reduction of methamphetamine-induced hyperactivity at 10 mg/kg, po administered prior to methamphetamine challenge relative to vehicle-treated control; assay type: functional; parameters: scale not given: the % may be the effect or the level left
Rattus norvegicus [13] = assay: Analgesic activity in Sprague-Dawley rat assessed as increase in pain threshold at 20 mg/kg, po after 15 to 90 mins by tail flick test; assay type: functional
Rattus norvegicus [14] = assay: Increase in pepsin concentration in Sprague-Dawley rat at 5 mg/kg, po administered 30 mins prior to pylorus ligation measured after 4 hrs relative to control; assay type: functional
Rattus norvegicus [15] = assay: Antisecretory activity in Sprague-Dawley rat assessed as decrease in acidity at 1 mg/kg, po administered 30 mins prior to pylorus ligation measured after 4 hrs relative to control; assay type: functional; parameters: scale not given: the % may be the effect or the level left
Rattus norvegicus [16] = assay: Antisecretory activity in Sprague-Dawley rat assessed as decrease in pepsin output at 2.5 mg/kg, po administered 30 mins prior to pylorus ligation measured after 4 hrs relative to control; assay type: functional; parameters: scale not given: the % may be the effect or the level left
Rattus norvegicus [17] = assay: Increase in pepsin concentration in Sprague-Dawley rat at 10 mg/kg, po administered 30 mins prior to pylorus ligation measured after 4 hrs relative to control; assay type: functional
Rattus norvegicus [18] = assay: Antisecretory activity in Sprague-Dawley rat assessed as decrease in acidity at 10 mg/kg, po administered 30 mins prior to pylorus ligation measured after 4 hrs relative to control; assay type: functional; parameters: scale not given: the % may be the effect or the level left
Rattus norvegicus [19] = assay: Antiulcer activity in albino Sprague-Dawley rat stress ulcer model assessed as prevention of stress-induced gastric lesions at 5 mg/kg, po administered 30 mins prior to stress measured after 4 hrs relative to vehicle-treated control; assay type: functional, Stomach
Rattus norvegicus [20] = assay: Antisecretory activity in Sprague-Dawley rat assessed as decrease in pepsin output at 1 mg/kg, po administered 30 mins prior to pylorus ligation measured after 4 hrs relative to control; assay type: functional; parameters: scale not given: the % may be the effect or the level left
Rattus norvegicus [21] = assay: Antiulcer activity in albino Sprague-Dawley rat shay ulcer model assessed as ulcer index scores at 10 mg/kg administered intraduodenally post pyloric ligation measured after 18.5 hrs relative to vehicle-treated control; assay type: functional; details: route intraduodenal
Rattus norvegicus [22] = assay: Antiulcer activity in albino Sprague-Dawley rat reserpine ulcer model assessed as prevention of reserpine-induced gastric lesions by measuring ulcer index scores at 10 mg/kg, po administered 30 mins prior to reserpine challenge measured after 6 hrs; assay type: functional, Stomach
Rattus norvegicus [23] = assay: Antisecretory activity in Sprague-Dawley rat assessed as decrease in volume at 10 mg/kg, po administered 30 mins prior to pylorus ligation measured after 4 hrs relative to control; assay type: functional; parameters: scale not given: the % may be the effect or the level left
Rattus norvegicus [24] = assay: Antisecretory activity in Sprague-Dawley rat assessed as decrease in volume at 1 mg/kg, po administered 30 mins prior to pylorus ligation measured after 4 hrs relative to control; assay type: functional; parameters: scale not given: the % may be the effect or the level left
Rattus norvegicus [25] = assay: Antisecretory activity in Sprague-Dawley rat assessed as decrease in volume at 2.5 mg/kg, po administered 30 mins prior to pylorus ligation measured after 4 hrs relative to control; assay type: functional; parameters: scale not given: the % may be the effect or the level left
Rattus norvegicus [26] = assay: Antisecretory activity in Sprague-Dawley rat assessed as decrease in acidity at 5 mg/kg, po administered 30 mins prior to pylorus ligation measured after 4 hrs relative to control; assay type: functional; parameters: scale not given: the % may be the effect or the level left
Rattus norvegicus [27] = assay: Antisecretory activity in Sprague-Dawley rat assessed as decrease in acid output at 5 mg/kg, po administered 30 mins prior to pylorus ligation measured after 4 hrs relative to control; assay type: functional; parameters: scale not given: the % may be the effect or the level left
Rattus norvegicus [28] = assay: Antiulcer activity in albino Sprague-Dawley rat stress ulcer model assessed as prevention of stress-induced gastric lesions by measuring ulcer index score at 10 mg/kg, po administered 30 mins prior to stress measured after 4 hrs; assay type: functional, Stomach
Rattus norvegicus [29] = assay: Antisecretory activity in Sprague-Dawley rat assessed as decrease in pepsin output at 10 mg/kg, po administered 30 mins prior to pylorus ligation measured after 4 hrs relative to control; assay type: functional; parameters: scale not given: the % may be the effect or the level left
Rattus norvegicus [30] = assay: Antisecretory activity in Sprague-Dawley rat assessed as decrease in acid output at 10 mg/kg, po administered 30 mins prior to pylorus ligation measured after 4 hrs relative to control; assay type: functional; parameters: scale not given: the % may be the effect or the level left
Rattus norvegicus [31] = assay: Antiulcer activity in albino Sprague-Dawley rat shay ulcer model assessed as ulcer index scores at 5 mg/kg administered intraduodenally post pyloric ligation measured after 18.5 hrs relative to vehicle-treated control; assay type: functional; details: route intraduodenal
Rattus norvegicus [32] = assay: Increase in pepsin concentration in Sprague-Dawley rat at 1 mg/kg, po administered 30 mins prior to pylorus ligation measured after 4 hrs relative to control; assay type: functional
Rattus norvegicus [33] = assay: Antisecretory activity in Sprague-Dawley rat assessed as decrease in acid output at 2.5 mg/kg, po administered 30 mins prior to pylorus ligation measured after 4 hrs relative to control; assay type: functional; parameters: scale not given: the % may be the effect or the level left
Rattus norvegicus [34] = assay: Increase in pepsin concentration in Sprague-Dawley rat at 2.5 mg/kg, po administered 30 mins prior to pylorus ligation measured after 4 hrs relative to control; assay type: functional
Rattus norvegicus [35] = assay: Antisecretory activity in Sprague-Dawley rat assessed as decrease in volume at 5 mg/kg, po administered 30 mins prior to pylorus ligation measured after 4 hrs relative to control; assay type: functional; parameters: scale not given: the % may be the effect or the level left
Rattus norvegicus [36] = assay: Antisecretory activity in Sprague-Dawley rat assessed as decrease in pepsin output at 5 mg/kg, po administered 30 mins prior to pylorus ligation measured after 4 hrs relative to control; assay type: functional; parameters: scale not given: the % may be the effect or the level left
Rattus norvegicus [37] = assay: Antisecretory activity in Sprague-Dawley rat assessed as decrease in acid output at 1 mg/kg, po administered 30 mins prior to pylorus ligation measured after 4 hrs relative to control; assay type: functional; parameters: scale not given: the % may be the effect or the level left
Rattus norvegicus [38] = assay: Antisecretory activity in Sprague-Dawley rat assessed as decrease in acidity at 2.5 mg/kg, po administered 30 mins prior to pylorus ligation measured after 4 hrs relative to control; assay type: functional; parameters: scale not given: the % may be the effect or the level left
Rattus norvegicus [39] = assay: Antiulcer activity in albino Sprague-Dawley rat reserpine ulcer model assessed as prevention of reserpine-induced gastric lesions by measuring ulcer index scores at 5 mg/kg, po administered 30 mins prior to reserpine challenge measured after 6 hrs; assay type: functional, Stomach
Rattus norvegicus [40] = assay: Antihypertensive activity in spontaneously hypertensive rat model assessed as reduction in blood pressure at 3 mg/kg, po after 3 hrs; assay type: functional; parameters: scale not given: the % may be the effect or the level left
Rattus norvegicus [41] = assay: Antihypertensive activity in spontaneously hypertensive rat model assessed as reduction in blood pressure at 1 mg/kg, po after 3 hrs; assay type: functional; parameters: scale not given: the % may be the effect or the level left
Rattus norvegicus [42] = assay: Analgesic activity in Sprague-Dawley rat assessed as increase in pain threshold at 40 mg/kg, po after 15 to 90 mins by tail flick test; assay type: functional
Rattus norvegicus [43] = assay: Antihypertensive activity in spontaneously hypertensive rat model assessed as reduction in blood pressure at 3 mg/kg, po after 24 hrs; assay type: functional; parameters: scale not given: the % may be the effect or the level left
Rattus norvegicus [44] = assay: Antihypertensive activity in spontaneously hypertensive rat model assessed as reduction in blood pressure at 1 mg/kg, po after 24 hrs; assay type: functional; parameters: scale not given: the % may be the effect or the level left
Mus musculus [45] = assay: Analgesic activity in mouse assessed as inhibition of acetic acid-induced writhing at 10 mg/kg, po administered 30 mins prior to acetic acid challenge measured after 5 mins for 20 mins; assay type: functional

Q: Which Activity (Rattus norvegicus [1]) does the source give for C#CCN1CCC2=C(C1)c1c(OC(C)=O)cc(C(C)CCCc3ccc(F)cc3)cc1OC2(C)C (centres undefined) here?
A: Its Activity is 30%.

Q: And the Activity (Rattus norvegicus [2])?
A: The Activity was 66%.

Q: What about the Activity (Rattus norvegicus [3]) of the same compound?
A: The Activity was 57%.

Q: And the LD50 [4]?
A: The LD50 was ≥ 1000 mg/kg.

Q: And the inhibition in vivo at 20 mg/kg (Mus musculus [5])?
A: The inhibition in vivo at 20 mg/kg was 27%.

Q: What about the ED50 (Rattus norvegicus [6]) of the same compound?
A: Its ED50 is 1 mg/kg.

Q: What about the Activity (Rattus norvegicus [7]) of the same compound?
A: The Activity was 90%.

Q: For CN(C)CCCN1c2ccccc2Sc2ccc(Cl)cc21 [CHLORPROMAZINE], which Activity (Rattus norvegicus [8]) is on record?
A: The Activity was 93%.

Q: And the Activity (Rattus norvegicus [9])?
A: Its Activity is 76%.

Q: What about the ED50 (Mus musculus [10]) of the same compound?
A: The ED50 was 2.4 mg/kg.

Q: What about the Activity (Rattus norvegicus [2]) of the same compound?
A: Its Activity is 11%.

Q: And the Activity (Mus musculus [11])?
A: Its Activity is 79%.

Q: And the Activity (Rattus norvegicus [12])?
A: The Activity was 83%.

Q: And the Activity (Rattus norvegicus [13])?
A: Its Activity is 37%.

Q: What does the source list for Cl.NC(=S)Cc1ccccn1?
A: Activity (Rattus norvegicus [14]): 92.6%; Activity (Rattus norvegicus [15]): 3.8%; Activity (Rattus norvegicus [16]): 8.4%; Activity (Rattus norvegicus [17]): 45.8%; Activity (Rattus norvegicus [18]): 86.3%; UI (Rattus norvegicus [19]): 0.4; Activity (Rattus norvegicus [20]): 19%; UI (Rattus norvegicus [21]): 0.7; UI (Rattus norvegicus [22]): 0; Activity (Rattus norvegicus [23]): 76.7%; Activity (Rattus norvegicus [24]): 33.1%; Activity (Rattus norvegicus [25]): 35.8%; Activity (Rattus norvegicus [26]): 49.8%; Activity (Rattus norvegicus [27]): 81.8%; UI (Rattus norvegicus [28]): 0; Activity (Rattus norvegicus [29]): 58.9%; Activity (Rattus norvegicus [30]): 95.5%; UI (Rattus norvegicus [31]): 3.3; Activity (Rattus norvegicus [32]): 29.3%; Activity (Rattus norvegicus [33]): 47.3%; Activity (Rattus norvegicus [34]): 43.1%; Activity (Rattus norvegicus [35]): 64%; Activity (Rattus norvegicus [36]): 31%; Activity (Rattus norvegicus [37]): 35.5%; Activity (Rattus norvegicus [38]): 17.4%; UI (Rattus norvegicus [39]): 0.1

Q: With CC1CCC2=C(C1)c1c(O)cc(C(C)CCc3ccc(F)cc3)cc1OC2(C)C (centres undefined) as the compound, how does the Activity (Rattus norvegicus [40]) read?
A: The Activity was 28%.

Q: And the Activity (Rattus norvegicus [41])?
A: The Activity was 8%.

Q: And the Activity (Rattus norvegicus [9])?
A: Its Activity is 72%.

Q: What about the Activity (Rattus norvegicus [42]) of the same compound?
A: Its Activity is 70%.

Q: And the Activity (Rattus norvegicus [2])?
A: Its Activity is 23%.

Q: And the LD50 [4]?
A: The LD50 was ≥ 1000 mg/kg.

Q: And the Activity (Rattus norvegicus [43])?
A: Its Activity is 8%.

Q: What about the Activity (Rattus norvegicus [44]) of the same compound?
A: The Activity was 5%.

Q: And the inhibition in vivo at 10 mg/kg (Mus musculus [45])?
A: Its inhibition in vivo at 10 mg/kg is 27%.
